Experimental findings from patent publication US20130041005A1, “PHARMACEUTICAL COMPOSITIONS COMPRISING NEUROPILIN INHIBITORS, AND THEIR USE FOR THE PREVENTION AND/OR TREATMENT OF ANGIOGENIC DISORDERS AND CANCERS” (TRAGEX PHARMA, priority 2011, published 2013) are described below.

One experiment has as its system MDAMB-231 cells. Briefly: Adhesion test (crystal violet), MDA-MB-231. The format is cell-based, Human. To be noted: MDAMB-231, FIGS. 1A-C. As to the method:
The crystal violet (hexamethyl pararosaniline chloride) is used as biologic colorant. It enters in the living cells, allowing the visualisation of the dark purple adherent living cells on the bottom of the plate.
After an incubation period of 72 h, the adherent cells were fixed with […] paraformaldehyde
3% for 15 min at room temperature. The medium and non-adherent cells were removed, and the cells were washed extensively with […] PBS (+Ca^2+ and +Mg^2+) (Lonza) and then stained with 50 μl of crystal violet 0.04% for 30 min at room temperature. The cells were washed gently 3 times with 100 μl PBS and were permeabilised with 100 μl triton 2% for 15 min. The microplate was stirred to obtain a homogenous solution and absorbance was quantified at 580 nm by Microplate Manager 5.2.
The percentage of inhibition is calculated as follow: % inhibition=100−[(DOsample/DOcontrol)*100].

A further experiment relates to HUVEC cells. Briefly: Tube formation assay. It is filed as cell-based. Conditions: HUVEC on collagen, IC50 concentration (FIGS. 1D, 3B). As for the experimental part: Collagen type I (1 mg/ml, BD) was mixed with 0.1N NaOH, 0.1% bicarbonate and 10× in medium EBM-2 and kept on ice until placed into the wells. The assay was prepared in 96-well plate format and the bottom layer of collagen was formed by adding 70 μL of the solution per well and allowing subsequent gelation at 37° C. for 30 min. The HUVEC cells were then seeded on collagen at […] cells per well. After monolayer formation (one day), a second layer of collagen 200 μL per well was prepared according to the same protocol and gently placed on top of the cell layer. The compounds of the invention were added to the cells at the adhesion step (concentration corresponding to the Inhibitory Concentration 50 (IC50)). After 24 and 48 h of incubation at 37° C., tube formation was observed and pictures were taken.

In another experiment the test system is U87 glioblastoma. Briefly: WST-1 proliferation assay, U87. The format is cell-based. Conditions: Homo sapiens; for IC50: Brain U87, 72 h, read-out: Anti-proliferative activity IC50 (μM) ± SD; for inhibition at 0.1 µM / inhibition at 0.5 µM / inhibition at 1 µM: U87 glioblastoma. The source says: Several cancer cell lines were used: breast cancer cells (MDA-MB-231 (ATTCC® Number HTB-26™), MDA-MB-436 (ATTCC® Number HTB-130™), MDA-MB-438, BT-474 (ATTCC® Number HTB-20™)); cervical cancer cells (HeLa (ATTCC® Number CCL-2™)); colon cancer cells (HCT-116 (ATTCC® Number CCL-247™) and HT-29 (ATTCC® Number HTB-38™)); osteosarcoma cells (U2OS (ATTCC® Number HTB-96™)); pancreas cancer cells (MIA PaCa-2 (ATTCC® Number CRL-1420™) and Panc-10.5 (ATTCC® Number CRL-2547™)); prostate cancer cells (PC-3 (ATTCC® Number CRL-1435™) and LNCaP (ATTCC® Number CRL-1740™)); brain cancer cells (U87 glioblastoma (ATTCC® Number HTB-14™) and SH-SYSY neuroblastoma (ATTCC® Number CRL-2266™)).
All the cancer cell lines were maintained in cultured in DMEM GlutaMAX™ (GIBCO Invitrogen, France, cat no 31966047) enhanced with 10% foetal bovine serum (GIBCO Invitrogen, France, cat no 10270-106) and 1% penicillin G/streptomycin (GIBCO Invitrogen, France, cat no 15140-122). Only Panc-10.5 cells were cultivated in RPMI 1640 medium (Gibco) supplemented with 2 mM L-glutamine, 1.5 g/L sodium bicarbonate, 4.5 g/L glucose, 10 mM HEPES, 1 mM sodium pyruvate, 10 Units/ml human insulin, […] (SVF): 15% (75 ml in 500 ml of medium).
Cells were grown as subconfluent monolayer and cultured in 75 cm^2 flasks at 37° C., 5% CO2 in a humidified atmosphere, and medium was changed every two days. Only cells from passages 2-6 were used for the experiments.
After observation of cells under the microscope, old media were removed and the adherent cells washed gently twice with PBS (Phosphate Buffer Saline, —Ca^2+, —Mg^2+, Lonza cat no: 17-512F/12). All cells were detached with 3 ml of trypsin/EDTA (chelator of calcium and magnesium ions) (Lonza), incubated for 5 min at 37° C., and examined using a microscope to ensure that the cells were detached and floating. Then, 3 ml TNS (Trypsin Neutralizing Solution, Lonza, France, cat no CC-5002) or of culture medium were added to inactivate the trypsin, and the cell suspension was transferred in a falcon and centrifuged for 7 min at 1400 rpm. The supernatant was removed and the cell pellet resuspended in […] of culture medium. 50 μl of this solution were transferred in 20 μl of isotonic solution and the cells were counted by count cellular (Beckman Coulter). At day 0, 200 μl of cellular suspension (3.10^3 cells/well for the HUVEC cells, breast cancer cells (MDA-MB-231 1.10^4 cells/well, MDA-MB-436 1.10^4 cells/well, MDA-MB-438 2.10^4 cells/well, BT-474 2.5.10^4 cells/well); cervical cancer cells (HeLa 5.000 cells/well); colon cancer cells (HCT-116 5.10^3 cells/well, HCT-29 1.1.10^4 cells/well); osteosarcoma cells (U2OS 8.10^3 cells/well); pancreas cancer cells (MIA PaCa-2 5.10^3 cells/well, Panc-10.5 1.5.10^4 cells/well); prostate cancer cells (PC-3 4.10^3 cells/well, LNCaP 2.10^4 cells/well); brain cancer cells (U87 5.10^3 cells/well, SH-SYSY 8.10^4 cells/well)) were then plated on 96 well plates and incubated at 37° C. in a humidified atmosphere of 5% CO2 for 24 h.
At day 1, the compounds 1 or 2 of the invention were added at increasing concentrations (0.1-10 μM) in the wells and plates were incubated at 37° C. in a humidified atmosphere of 5% CO2 for 72 h.
The cell proliferation WST-1 assay is a colorimetric assay for the quantification of cell proliferation and viability, based on the enzymatic cleavage of the tetrazolium salt WST-1 added to the culture medium, to a water soluble colored formazan dye, detected by absorbance at 450 nm, by mitochondrial succinate-tetrazolium reductase in viable cells. An augmentation in enzyme activity will then lead to an increase in the amount of formazan dye formed, which directly correlates to the number of metabolically active cells in the culture.
After an incubation period of 72 h, at day 4, were prepared the 19 ml medium with reagent WST-1 1 ml ([…]). The medium was removed from the 96 microplate and 200 μl of solution WST-1/medium were added for each well. […]
(Formazan colour is commonly taken as a measure of viable cells.)

“Also recorded” adds a separate entry of the source.

What is called IC50 is the midpoint of a concentration-inhibition curve. By inhibition is commonly meant how much of the control response was suppressed. Read a low inhibition as a response near the control.

Take `Cc1ccc(-c2nc3ccccc3[nH]2)cc1NC(=S)NC(=O)c1ccc2c(c1)OCCO2` [Compound 1, N-[5-(1H-benzimidazol-2-yl)-2-methylphenyl]-N′-(2,3-dihydro-1,4-benzodioxin-6-ylcarbonyl)thiourea]: in the experiment on MDAMB-231 cells, the “inhibition of adhesion of cancer cells in culture” value was “inhibited the adhesion”. In the experiment with HUVEC cells, the “formation of new blood vessels (tube formation)” value is listed as “inhibited the tube formation; also recorded: effectively inhibited”. For the same compound, in the experiment on U87 glioblastoma, the IC50 is 1 µM, the inhibition at 0.1 µM was 0%, the inhibition at 0.5 µM is 45% and the inhibition at 1 µM was found to be 54%.
As for `O=C(NC(=S)Nc1cccc(-c2nc3ccccc3[nH]2)c1)c1ccc2c(c1)OCCO2` [Compound 2, N-[3-(1H-benzimidazol-2-yl)phenyl]-N′-(2,3-dihydro-1,4-benzodioxin-6-ylcarbonyl)thiourea], in the experiment with MDAMB-231 cells, the “inhibition of adhesion of cancer cells in culture” value is “inhibited the adhesion”. In the experiment with HUVEC cells, the “formation of new blood vessels (tube formation)” value is recorded as “inhibited the tube formation; also recorded: effectively inhibited”. In the experiment with U87 glioblastoma, the IC50 worked out at 0.3 ± 0.02 µM, the inhibition at 0.1 µM was found to be 44%, at 0.5 µM the inhibition was 60% and testing at 1 µM gave an inhibition of 61%.
